Laboratory results reported in patent US10076533B2, “Acyclic nucleoside phosphonate diesters” (The Regents of the University of California, priority 2013, dated 2018).
Where two headings read alike, the source gives them in different places.

Key:
HIV-192US727 = test: Anti-HIV assay in human PBMC, supernatant reverse transcriptase activity
[1] = system: Human peripheral blood monocyte (PBMC); test: Viability of PBMC by XTT reduction; details: human PBMC, XTT reduction
Hepatitis B virus = test: HBV replication in 2.2.15 cells, HBV DNA blot hybridization; details: HBV replication in 2.2.15 cells, 7 days treatment, HBV DNA blot hybridization
2.2.15 cells = test: Cytotoxicity in 2.2.15 cells by neutral red uptake; details: 2.2.15 cells, neutral red uptake
[2] = system: Copenhagen strain of vaccinia virus; test: microbe, parasite or virus in culture; format: cell-based; details: HFF cells infected with vaccinia virus (Copenhagen), 7 days, crystal violet; read-out: EC50
[3] = system: AD169 strain of human cytomegalovirus; test: Antiviral effect in HFF cells infected with human cytomegalovirus (AD169); details: HFF cells infected with human cytomegalovirus (AD169), 14 days, crystal violet
[4] = system: human foreskin fibroblast (HFF) cells; test: Cytotoxicity in HFF cells in parallel to cytomegalovirus assay; details: HFF cells, in parallel to cytomegalovirus assay
MT-2 cells = test: Cytotoxicity in MT-2 cells, flow cytometry cell counts and viability; format: cell-based, human; details: MT-2 cells, 72 hrs; read-out: CC50
Procedure: MT-2 cells were incubated with drug for 72 hrs and harvested. Flow count beads (Beckman Coulter, Miami, Fla.) were added to the cell suspension followed by propidium iodide staining and analysis using flow cytometer and the 50% cytotoxic concentration (CC50) was calculated from the cell counts and viability.

MAD-1 strain of JC virus = test: Antiviral effect in JC virus (MAD-1) infected COS7 cells, qPCR; details: COS7 cells infected with JC virus (MAD-1), 7 days, qPCR
HEK 293 cells = test: Toxicity in HEK 293 cells by trypan blue exclusion (HPV-11 example); format: cell-based
Procedure: (§1) An origin-containing plasmid was co-transfected with HPV-11 E1 and E2 protein expression vectors into HEK 293 cells. At 4 hr post-transfection, cells were treated with compound dilutions and the cells were incubated for 48 hr. Replication of the virus origin was detected with DpnI and exonuclease III to remove unreplicated input bacterial plasmid DNA. Remaining replicated DNA was quantified by qPCR. Toxicity was determined by trypan blue exclusion.

COS7 cells = details: uninfected COS7 cells, […]
[5] = system: Human peripheral blood monocyte (PBMC)
[6] = system: human foreskin fibroblast (HFF) cells; test: Cytotoxicity in HFF cells in parallel to HSV-2 assay; details: HFF cells
[7] = system: human foreskin fibroblast (HFF) cells; details: uninfected HFF cells, […]
HIV-1LAI = test: HIV antiviral assay in MT-2 cells, p24 reduction
[8] = system: human foreskin fibroblast (HFF) cells; test: Cytotoxicity in HFF cells in parallel to HSV-1 assay; details: HFF cells, in parallel to HSV-1 assay
HPV-11 = HPV-11 origin replication in HEK 293 cells, qPCR; format: cell-based; details: HPV-11 origin replication in HEK 293 cells, 48 hr, qPCR
Procedure: as §1

[9] = system: human foreskin fibroblast (HFF) cells
[10] = system: BK virus (Gardner strain); test: Antiviral effect in HFF cells infected with BK virus (Gardner strain), qPCR; details: HFF cells infected with BK virus (Gardner strain), 14 days, qPCR

CCCCCCCCCCCCCCCCCCOCCOP(=O)(CO[C@H](C)Cn1cnc2c(N)ncnc21)Oc1ccccc1 (stereo partly drawn) [Compound 92, phenyl octadecyloxyethyl 9-(R)-[(2-phosphonomethoxy)propyl]adenine]
EC50 (HIV-192US727; HIV-192US727 infected human PBMC, 7 days, supernatant reverse transcriptase activity): < 0.005 µM
CC50 [1]: 24.1 µM
EC50 (Hepatitis B virus): 7.3 µM
CC50 (2.2.15 cells): 68 µM

CCCCCCCCCCCCCCCCCCOC[C@H](COP(=O)(CO[C@H](CO)Cn1cnc2c(N)ncnc21)OCc1ccccc1)OCc1ccccc1 (stereo partly drawn) [Compound 230, benzyl 1-O-octadecyl-2-O-benzyl-sn-glyceryl 9-(S)-[(3-hydroxypropyl-2-phosphonomethoxy)propyl]adenine]
EC50 (HIV-192US727): < 0.1 µM
EC50 [2]: 0.06 µM
EC50 [3]: < 0.03 µM
CC50 [4]: 3.72 µM
CC50 (MT-2 cells): 19 ± 2.6 µM
EC50 (MAD-1 strain of JC virus): > 4 µM
CC50 (HEK 293 cells): > 10 µM
CC50 (COS7 cells): 18.4 µM
CC50 [5]: 0.55 µM
CC50 [6]: 37.1 µM
CC50 [7]: 19.6 µM
Selectivity Index (HIV-1LAI; CC50/EC50, MT-2 cells): 380
EC50 (HIV-1LAI; HIV-1 infected MT-2 cells, p24 reduction, four days): 0.05 ± 0.03 µM
CC50 [8]: 82.2 µM
EC50 (HPV-11): 0.56 µM
CC50 [9]: 97.5 µM
EC50 [10]: 0.06 µM
